Laboratory results from patent publication US8236963B2, “Tricyclic spiro derivatives as CRTH2 modulators” (Merck Serono SA, priority 2005, dated 2012).

Tests used:
[1] = target: T1, CRTH2 (Homo sapiens, UniProt Q9Y5Y4); test: Radioligand binding assay ([3H]PGD2, hCRTH2 HEK293 (EBNA) cell membranes); set-up: expressed in transfected cells; host or cells: HEK293 (EBNA) cells, membrane preparation; settings: 1.5 nM [3H]PGD2, 10 μg hCRTH2 HEK293 (EBNA) membrane protein, 60 min at room temperature
T1 sequence (Q9Y5Y4 1-395): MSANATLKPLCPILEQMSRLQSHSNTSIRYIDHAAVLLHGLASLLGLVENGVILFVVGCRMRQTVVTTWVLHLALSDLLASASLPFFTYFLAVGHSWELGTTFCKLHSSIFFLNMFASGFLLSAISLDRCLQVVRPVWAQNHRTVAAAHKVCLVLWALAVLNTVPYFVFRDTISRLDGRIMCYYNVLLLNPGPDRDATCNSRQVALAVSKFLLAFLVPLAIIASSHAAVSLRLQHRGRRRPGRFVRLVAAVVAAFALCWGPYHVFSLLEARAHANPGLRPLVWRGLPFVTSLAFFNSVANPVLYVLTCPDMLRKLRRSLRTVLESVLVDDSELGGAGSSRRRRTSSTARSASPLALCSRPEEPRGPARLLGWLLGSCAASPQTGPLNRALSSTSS
Text: Human CRTH2 cDNA was amplified by PCR using a human urinary bladder cDNA library as a template and specific primers containing HindIII and BamHI restriction sites for cloning into the pCEP4 vector (Invitrogen). The vector construction is described in detail in Sawyer et al., Br. J. Pharmocol 2002, 137, 1163-72. The nucleotide sequence of the cloned cDNA was identical the previously reported hCRTH2 sequence (Nagata et al, 1999, J. Immunol. 162, 1278-1286).
HEK293 (EBNA) cells were transfected with the pCEP4-hCRTH2 construct using the calcium phosphate technique. Cells were maintained in culture at 37° C. in an atmosphere of 5% CO2 in Dulbecco's modified Eagle's F12 medium (Invitrogen), containing 10% heat-inactivated foetal calf serum (TerraCell International, Canada), 2 mM Glutamine, 100 units/ml of penicillin and 100 μg/ml streptomycin (Invitrogen). 48 hours after the transfection, cells were grown in presence of 300 μg/ml of Hygromycin B (Invitrogen) for 4 weeks and antibiotic resistant cells were amplified for cell membrane preparation.
Adherent HEK293 (EBNA) cells expressing hCRTH2 were cultured in 225 cm^2 cell culture flasks (Corning, USA) in 30 ml of medium. After two rinses of phosphate buffered saline (PBS), cells were harvested in 10 ml of PBS containing 1 mM EDTA, centrifuged at 500×g for 5 min at 4° C. and frozen at −80° C. The pellet was re-suspended in 50 mM Tris-HCl, pH 7.4, 2 mM EDTA, 250 mM Sucrose, containing protease inhibitor cocktail tablets, (Complete EDTA-free, Roche, Germany) and incubated 30 min at 4° C. Cells were disrupted by nitrogen cavitation (Parr Instruments, USA) at 4° C. (800 p.s.i. for 30 min), and centrifuged at 500×g for 10 min at 4° C. Pellet containing nuclei and cellular debris was discarded and supernatant was centrifuged 60 min at 4° C. at 45000×g. Membrane pellet was re-suspended in storage buffer (10 mM HEPES/KOH pH 7.4, 1 mM EDTA, 250 mM sucrose, protease inhibitor cocktail tablets) using Dounce homogenization and frozen in liquid nitrogen, and stored at −80° C.
The inhibitory activity can be investigated by a radioligand binding assay (Sawyer et al., Br. J. Pharmocol 2002, 137, 1163-72). The radioligand binding assay was performed at room temperature in binding buffer (10 mM HEPES/KOH pH […], with protease inhibitor cocktail tablets), containing 1.5 nM [^3H]PGD2 (Amersham, 156 Cie/mmol), and 10 μg of hCRTH2 HEK293 (EBNA) cell membrane protein in a final volume of 100 μl in 96 well plates (Corning, USA). Non-specific binding was determined in the presence of 1 μM PGD2 (Cayman, USA). Competing spiro-indolinones were diluted in dimethylsulphoxide so that the total volume of dimethylsulfoxide was kept constant at 1% dimethylsulphoxide (Me2SO) Serial dilutions of 100 μM and […] were prepared. 10 μl each of these spiro-indolinone stock solutions were added. Incubation (60 min at room temperature) was terminated by rapid filtration through 96 wells hydrophobic GF/C Unifilter plates (Whatman, USA). Filters were washed twice with 250 μl of Tris-HCl pH 7.4, 10 mM MnCl2, and residual radioligand bound to the filters was mixed to 100 μl of liquid scintillation cocktail (Optiphase Supermix, Perkin Elmer, USA) and binding activity was determined by counting residual radioligand using a 1450 Micro-beta scintillation counter (Wallac, UK). The following representative compounds were tested. […]

In the case of `O=C(O)CN1C(=O)C2(CC(=O)N(Cc3ccccc3)C2=O)c2cc(Cl)ccc21` (centres unmarked) [Example 12, (1′-Benzyl-5-chloro-2,2′,5′-trioxo-spiro[indole-3,3′-pyrrolidin]-1-yl)acetic acid], the melting point is reported as 205 to 207 °C and the inhibition [1] is reported as over 70%.
